Data taken from ChEMBL document CHEMBL4800729 (2021).

Legend:
[1] = target: Tyrosine-protein kinase ABL2 (Homo sapiens) (UniProt P42684); test: Arg(h) Millipore kinase panel; details: Compound concentration 1.0 uM
[2] = target: Calcium/calmodulin-dependent protein kinase type 1B (Homo sapiens) (UniProt Q6P2M8); test: CaMKIbeta(h) Millipore kinase panel; details: Compound concentration 1.0 uM
[3] = target: Transient receptor potential cation channel subfamily M member 7 (Homo sapiens) (UniProt Q96QT4); test: ChaK1(h) Millipore kinase panel; details: Compound concentration 1.0 uM
[4] = target: Death-associated protein kinase 2 (Homo sapiens) (UniProt Q9UIK4); test: DAPK2(h) Millipore kinase panel; details: Compound concentration 1.0 uM
[5] = target: Epidermal growth factor receptor (Homo sapiens) (UniProt P00533); test: EGFR(h) Millipore kinase panel; details: Compound concentration 1.0 uM
[6] = target: Receptor tyrosine-protein kinase erbB-4 (Homo sapiens) (UniProt Q15303); test: ErbB4(h) Millipore kinase panel; details: Compound concentration 1.0 uM
[7] = target: Focal adhesion kinase 1 (Homo sapiens) (UniProt Q05397); test: FAK(h Millipore kinase panel; details: Compound concentration 1.0 uM
[8] = target: Fibroblast growth factor receptor 1 (Homo sapiens) (UniProt P11362); test: FGFR1(h) Millipore kinase panel; details: Compound concentration 1.0 uM
[9] = target: Fibroblast growth factor receptor 3 (Homo sapiens) (UniProt P22607); test: FGFR3(h) Millipore kinase panel; details: Compound concentration 1.0 uM
[10] = target: G protein-coupled receptor kinase 3 (Homo sapiens) (UniProt P35626); test: GRK3(h) Millipore kinase panel; details: Compound concentration 1.0 uM
[11] = target: Inhibitor of nuclear factor kappa-B kinase subunit alpha (Homo sapiens) (UniProt O15111); test: IKKalpha(h) Millipore kinase panel; details: Compound concentration 1.0 uM
[12] = target: Inhibitor of nuclear factor kappa-B kinase subunit epsilon (Homo sapiens) (UniProt Q14164); test: IKKepsilon(h Millipore kinase panel; details: Compound concentration 1.0 uM
[13] = target: Tyrosine-protein kinase ITK/TSK (Homo sapiens) (UniProt Q08881); test: Itk(h) Millipore kinase panel; details: Compound concentration 1.0 uM
[14] = target: LIM domain kinase 2 (Homo sapiens) (UniProt P53671); test: LIMK2(h) Millipore kinase panel; details: Compound concentration 1.0 uM
[15] = target: Serine/threonine-protein kinase STK11 (Homo sapiens) (UniProt Q15831); test: LKB1(h) Millipore kinase panel; details: Compound concentration 1.0 uM
[16] = target: Mitogen-activated protein kinase kinase kinase kinase 5 (Homo sapiens) (UniProt Q9Y4K4); test: MAP4K5(h) Millipore kinase panel; details: Compound concentration 1.0 uM
[17] = target: Hepatocyte growth factor receptor (Homo sapiens) (UniProt P08581); test: Met(h) Millipore kinase panel; details: Compound concentration 1.0 uM
[18] = target: Misshapen-like kinase 1 (Homo sapiens) (UniProt Q8N4C8); test: MINK(h) Millipore kinase panel; details: Compound concentration 1.0 uM
[19] = target: Mitogen-activated protein kinase kinase kinase 10 (Homo sapiens) (UniProt Q02779); test: MLK2(h) Millipore kinase panel; details: Compound concentration 1.0 uM
[20] = target: MAPK/MAK/MRK overlapping kinase (Homo sapiens) (UniProt Q9UQ07); test: MOK(h) Millipore kinase panel; details: Compound concentration 1.0 uM
[21] = target: Serine/threonine-protein kinase MRCK alpha (Homo sapiens) (UniProt Q5VT25); test: MRCKalpha(h) Millipore kinase panel; details: Compound concentration 1.0 uM
[22] = target: Serine/threonine-protein kinase MRCK gamma (Homo sapiens) (UniProt Q6DT37); test: MRCKgamma(h) Millipore kinase panel; details: Compound concentration 1.0 uM
[23] = target: SRSF protein kinase 3 (Homo sapiens) (UniProt Q9UPE1); test: MSSK1(h) Millipore kinase panel; details: Compound concentration 1.0 uM
[24] = target: Serine/threonine-protein kinase PAK 1 (Homo sapiens) (UniProt Q13153); test: PAK1(h) Millipore kinase panel; details: Compound concentration 1.0 uM
[25] = target: Eukaryotic translation initiation factor 2-alpha kinase 3 (Homo sapiens) (UniProt Q9NZJ5); test: PEK(h) Millipore kinase panel; details: Compound concentration 1.0 uM
[26] = target: Phosphorylase b kinase gamma catalytic chain, skeletal muscle/heart isoform (Homo sapiens) (UniProt Q16816); test: PhKgamma1(h) Millipore kinase panel; details: Compound concentration 1.0 uM
[27] = target: Serine/threonine-protein kinase D1 (Homo sapiens) (UniProt Q15139); test: PKCmu(h) Millipore kinase panel; details: Compound concentration 1.0 uM
[28] = target: Serine/threonine-protein kinase D2 (Homo sapiens) (UniProt Q9BZL6); test: PKD2(h) Millipore kinase panel; details: Compound concentration 1.0 uM
[29] = target: Serine/threonine-protein kinase D3 (Homo sapiens) (UniProt O94806); test: PKD3(h) Millipore kinase panel; details: Compound concentration 1.0 uM
[30] = target: Proto-oncogene tyrosine-protein kinase receptor Ret (Homo sapiens) (UniProt P07949); test: Ret(h) Millipore kinase panel; details: Compound concentration 1.0 uM
[31] = target: Serine/threonine-protein kinase PLK2 (Homo sapiens) (UniProt Q9NYY3); test: Snk(h) Millipore kinase panel; details: Compound concentration 1.0 uM
[32] = target: SNF-related serine/threonine-protein kinase (Homo sapiens) (UniProt Q9NRH2); test: SNRK(h) Millipore kinase panel; details: Compound concentration 1.0 uM
[33] = target: Serine/threonine-protein kinase 32A (Homo sapiens) (UniProt Q8WU08); test: STK32A(h) Millipore kinase panel; details: Compound concentration 1.0 uM
[34] = target: Serine/threonine-protein kinase 32B (Homo sapiens) (UniProt Q9NY57); test: STK32B(h) Millipore kinase panel; details: Compound concentration 1.0 uM
[35] = target: Serine/threonine-protein kinase 33 (Homo sapiens) (UniProt Q9BYT3); test: STK33(h) Millipore kinase panel; details: Compound concentration 1.0 uM
[36] = target: Tyrosine-protein kinase SYK (Homo sapiens) (UniProt P43405); test: Syk(h) Millipore kinase panel; details: Compound concentration 1.0 uM
[37] = target: Serine/threonine-protein kinase TAO3 (Homo sapiens) (UniProt Q9H2K8); test: TAO3(h) Millipore kinase panel; details: Compound concentration 1.0 uM
[38] = target: Serine/threonine-protein kinase tousled-like 2 (Homo sapiens) (UniProt Q86UE8); test: TLK2(h) Millipore kinase panel; details: Compound concentration 1.0 uM
[39] = target: Serine/threonine-protein kinase VRK1 (Homo sapiens) (UniProt Q99986); test: VRK1(h) Millipore kinase panel; details: Compound concentration 1.0 uM
[40] = target: Tyrosine-protein kinase ZAP-70 (Homo sapiens) (UniProt P43403); test: ZAP_70(h) Millipore kinase panel; details: Compound concentration 1.0 uM
[41] = target: PI3-kinase p110-delta/p85-alpha (Homo sapiens) (UniProt P27986+O00329); test: PI3 Kinase (p110d/p85a)(h) Millipore kinase panel; assay type: protein-complex assay; details: Compound concentration 1.0 uM
[42] = target: Cyclin-dependent kinase 14/Cyclin-Y (Homo sapiens) (UniProt O94921+Q8ND76); test: CDK14/cyclinY(h) Millipore kinase panel; assay type: protein-complex assay; details: Compound concentration 1.0 uM
[43] = target: PI3-kinase p110-alpha/p85-alpha (Homo sapiens) (UniProt P27986+P42336); test: PI3 Kinase (p110a/p85a)(h) Millipore kinase panel; assay type: protein-complex assay; details: Compound concentration 1.0 uM
[44] = target: Histamine H4 receptor (Homo sapiens) (UniProt Q9H3N8); details: Compound concentration 10.0 uM
[45] = target: Muscarinic acetylcholine receptor M5 (Homo sapiens) (UniProt P08912); details: Compound concentration 10.0 uM
[46] = target: Glutamate NMDA receptor (Rattus norvegicus) (UniProt P35439+Q00959+Q00960+Q00961+Q62645+Q8VHN2+Q9R1M7); details: Compound concentration 10.0 uM
[47] = target: Sodium-dependent noradrenaline transporter (Homo sapiens) (UniProt P23975); details: Compound concentration 10.0 uM
[48] = target: Vasopressin V1a receptor (Homo sapiens) (UniProt P37288); details: Compound concentration 10.0 uM
[49] = target: Growth hormone secretagogue receptor type 1 (Homo sapiens) (UniProt Q92847); details: Compound concentration 10.0 uM

Measured: inhibition

Chain of LIM domain kinase 2 (Homo sapiens) (P53671 whole entry, looked up, the tested form may be a part): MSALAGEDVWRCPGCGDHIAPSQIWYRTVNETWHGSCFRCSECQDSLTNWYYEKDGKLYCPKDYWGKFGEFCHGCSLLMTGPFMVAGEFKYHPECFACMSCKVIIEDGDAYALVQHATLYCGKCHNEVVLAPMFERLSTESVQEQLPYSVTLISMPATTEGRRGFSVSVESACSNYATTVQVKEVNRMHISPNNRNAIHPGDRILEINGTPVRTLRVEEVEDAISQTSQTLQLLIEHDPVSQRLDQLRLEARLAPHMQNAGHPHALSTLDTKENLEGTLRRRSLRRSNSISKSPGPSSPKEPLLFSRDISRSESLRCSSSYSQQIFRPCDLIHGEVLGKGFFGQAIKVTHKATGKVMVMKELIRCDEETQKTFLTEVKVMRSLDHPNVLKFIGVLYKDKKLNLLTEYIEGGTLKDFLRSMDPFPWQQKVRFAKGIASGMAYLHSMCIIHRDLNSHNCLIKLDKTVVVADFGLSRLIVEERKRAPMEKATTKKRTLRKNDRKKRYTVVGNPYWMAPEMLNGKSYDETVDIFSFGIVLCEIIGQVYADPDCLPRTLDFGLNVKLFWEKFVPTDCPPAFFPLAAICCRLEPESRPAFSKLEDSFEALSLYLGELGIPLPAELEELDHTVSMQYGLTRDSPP
Chain of Serine/threonine-protein kinase 32A (Homo sapiens) (Q8WU08 whole entry): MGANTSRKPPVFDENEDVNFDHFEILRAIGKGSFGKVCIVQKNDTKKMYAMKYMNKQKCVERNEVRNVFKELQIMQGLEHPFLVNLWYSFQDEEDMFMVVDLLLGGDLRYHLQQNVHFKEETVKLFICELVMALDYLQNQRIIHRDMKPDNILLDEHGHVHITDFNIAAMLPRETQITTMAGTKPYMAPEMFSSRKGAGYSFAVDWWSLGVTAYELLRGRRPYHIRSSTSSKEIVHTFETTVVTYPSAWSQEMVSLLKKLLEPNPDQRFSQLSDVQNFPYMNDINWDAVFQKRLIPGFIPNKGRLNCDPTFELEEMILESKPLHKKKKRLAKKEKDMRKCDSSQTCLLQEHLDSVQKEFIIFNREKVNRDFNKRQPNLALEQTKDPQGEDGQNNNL
Chain of Inhibitor of nuclear factor kappa-B kinase subunit alpha (Homo sapiens) (O15111 whole entry): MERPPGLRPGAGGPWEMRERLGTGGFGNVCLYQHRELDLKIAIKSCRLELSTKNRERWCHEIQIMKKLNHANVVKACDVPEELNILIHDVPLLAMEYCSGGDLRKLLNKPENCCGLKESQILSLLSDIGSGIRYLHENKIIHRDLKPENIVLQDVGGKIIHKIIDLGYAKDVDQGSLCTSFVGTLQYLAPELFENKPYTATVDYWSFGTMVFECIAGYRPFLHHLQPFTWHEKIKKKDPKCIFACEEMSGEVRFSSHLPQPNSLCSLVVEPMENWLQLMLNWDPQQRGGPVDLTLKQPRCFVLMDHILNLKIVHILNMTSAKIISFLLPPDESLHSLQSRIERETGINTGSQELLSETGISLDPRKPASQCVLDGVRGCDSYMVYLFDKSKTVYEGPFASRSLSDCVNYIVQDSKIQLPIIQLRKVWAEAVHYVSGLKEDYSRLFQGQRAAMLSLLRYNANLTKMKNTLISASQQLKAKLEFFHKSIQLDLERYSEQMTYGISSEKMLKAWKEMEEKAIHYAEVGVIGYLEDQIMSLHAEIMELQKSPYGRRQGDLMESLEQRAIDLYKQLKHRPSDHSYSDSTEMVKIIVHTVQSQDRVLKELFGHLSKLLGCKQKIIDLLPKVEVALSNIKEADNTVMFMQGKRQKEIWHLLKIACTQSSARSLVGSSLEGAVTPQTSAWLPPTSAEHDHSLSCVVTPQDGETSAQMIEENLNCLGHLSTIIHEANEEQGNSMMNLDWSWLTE
Chain of Tyrosine-protein kinase ABL2 (Homo sapiens) (P42684 whole entry): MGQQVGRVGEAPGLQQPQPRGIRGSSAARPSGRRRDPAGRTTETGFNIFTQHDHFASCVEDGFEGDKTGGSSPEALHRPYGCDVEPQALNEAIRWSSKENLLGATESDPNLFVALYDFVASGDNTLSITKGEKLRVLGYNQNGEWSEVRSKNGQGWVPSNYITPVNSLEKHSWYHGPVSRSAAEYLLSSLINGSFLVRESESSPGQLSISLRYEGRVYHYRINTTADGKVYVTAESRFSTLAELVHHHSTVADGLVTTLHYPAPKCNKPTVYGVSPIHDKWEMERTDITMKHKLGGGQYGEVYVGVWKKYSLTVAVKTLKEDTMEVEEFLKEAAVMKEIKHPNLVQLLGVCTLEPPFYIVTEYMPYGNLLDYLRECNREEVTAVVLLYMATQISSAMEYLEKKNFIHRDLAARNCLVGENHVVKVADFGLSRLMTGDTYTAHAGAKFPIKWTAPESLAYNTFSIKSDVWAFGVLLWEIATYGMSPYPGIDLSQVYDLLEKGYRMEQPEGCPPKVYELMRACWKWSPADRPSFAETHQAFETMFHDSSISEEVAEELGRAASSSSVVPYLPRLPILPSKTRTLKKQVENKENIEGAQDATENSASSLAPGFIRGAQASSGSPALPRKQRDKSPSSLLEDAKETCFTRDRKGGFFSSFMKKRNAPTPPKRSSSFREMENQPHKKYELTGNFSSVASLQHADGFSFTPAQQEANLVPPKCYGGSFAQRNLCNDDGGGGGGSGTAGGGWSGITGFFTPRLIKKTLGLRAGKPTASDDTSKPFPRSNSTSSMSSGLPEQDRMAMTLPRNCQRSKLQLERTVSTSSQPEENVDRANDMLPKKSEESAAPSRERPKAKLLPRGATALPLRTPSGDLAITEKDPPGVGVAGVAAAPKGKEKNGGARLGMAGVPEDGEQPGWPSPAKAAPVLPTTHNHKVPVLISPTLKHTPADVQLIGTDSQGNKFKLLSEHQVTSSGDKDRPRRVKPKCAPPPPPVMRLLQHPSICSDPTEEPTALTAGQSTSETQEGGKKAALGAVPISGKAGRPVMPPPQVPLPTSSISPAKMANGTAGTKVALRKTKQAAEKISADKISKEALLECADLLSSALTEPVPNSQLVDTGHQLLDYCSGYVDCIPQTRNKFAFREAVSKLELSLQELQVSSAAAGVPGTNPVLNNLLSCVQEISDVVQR
Chain of Phosphorylase b kinase gamma catalytic chain, skeletal muscle/heart isoform (Homo sapiens) (Q16816 whole entry, looked up, canonical isoform): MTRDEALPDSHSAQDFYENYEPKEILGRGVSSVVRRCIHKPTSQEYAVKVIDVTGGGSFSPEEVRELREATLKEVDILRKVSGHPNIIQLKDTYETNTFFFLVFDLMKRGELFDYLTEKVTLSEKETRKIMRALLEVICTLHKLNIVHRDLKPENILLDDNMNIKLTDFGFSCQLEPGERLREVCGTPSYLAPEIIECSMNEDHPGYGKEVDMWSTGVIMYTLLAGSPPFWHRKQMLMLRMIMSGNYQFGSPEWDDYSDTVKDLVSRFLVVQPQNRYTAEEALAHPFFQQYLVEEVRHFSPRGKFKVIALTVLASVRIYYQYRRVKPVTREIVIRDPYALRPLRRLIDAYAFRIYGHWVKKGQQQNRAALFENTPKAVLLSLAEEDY
Chain of Serine/threonine-protein kinase D2 (Homo sapiens) (Q9BZL6 whole entry): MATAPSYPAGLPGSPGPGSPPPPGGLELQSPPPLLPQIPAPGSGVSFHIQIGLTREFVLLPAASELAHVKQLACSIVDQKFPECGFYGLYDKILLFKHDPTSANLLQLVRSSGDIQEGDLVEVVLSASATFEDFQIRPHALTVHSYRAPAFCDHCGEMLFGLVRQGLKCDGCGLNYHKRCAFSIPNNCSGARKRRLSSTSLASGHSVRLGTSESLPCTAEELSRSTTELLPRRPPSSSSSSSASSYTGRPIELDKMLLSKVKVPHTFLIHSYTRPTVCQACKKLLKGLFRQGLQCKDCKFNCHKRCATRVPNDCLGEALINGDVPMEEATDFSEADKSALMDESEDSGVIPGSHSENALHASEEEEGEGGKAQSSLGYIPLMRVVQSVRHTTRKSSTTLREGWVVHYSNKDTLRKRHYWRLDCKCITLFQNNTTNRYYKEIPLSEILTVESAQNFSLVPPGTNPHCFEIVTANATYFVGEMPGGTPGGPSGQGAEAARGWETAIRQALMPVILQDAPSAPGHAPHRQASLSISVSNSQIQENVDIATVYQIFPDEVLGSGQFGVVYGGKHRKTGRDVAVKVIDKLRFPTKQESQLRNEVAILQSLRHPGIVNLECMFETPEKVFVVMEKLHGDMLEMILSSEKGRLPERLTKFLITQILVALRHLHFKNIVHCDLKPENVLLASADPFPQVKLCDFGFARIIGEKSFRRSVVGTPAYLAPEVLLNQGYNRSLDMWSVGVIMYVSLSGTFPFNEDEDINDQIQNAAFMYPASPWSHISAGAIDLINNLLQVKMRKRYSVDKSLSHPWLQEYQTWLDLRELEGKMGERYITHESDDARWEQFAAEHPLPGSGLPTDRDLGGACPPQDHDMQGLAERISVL
Chain of Muscarinic acetylcholine receptor M5 (Homo sapiens) (P08912 whole entry): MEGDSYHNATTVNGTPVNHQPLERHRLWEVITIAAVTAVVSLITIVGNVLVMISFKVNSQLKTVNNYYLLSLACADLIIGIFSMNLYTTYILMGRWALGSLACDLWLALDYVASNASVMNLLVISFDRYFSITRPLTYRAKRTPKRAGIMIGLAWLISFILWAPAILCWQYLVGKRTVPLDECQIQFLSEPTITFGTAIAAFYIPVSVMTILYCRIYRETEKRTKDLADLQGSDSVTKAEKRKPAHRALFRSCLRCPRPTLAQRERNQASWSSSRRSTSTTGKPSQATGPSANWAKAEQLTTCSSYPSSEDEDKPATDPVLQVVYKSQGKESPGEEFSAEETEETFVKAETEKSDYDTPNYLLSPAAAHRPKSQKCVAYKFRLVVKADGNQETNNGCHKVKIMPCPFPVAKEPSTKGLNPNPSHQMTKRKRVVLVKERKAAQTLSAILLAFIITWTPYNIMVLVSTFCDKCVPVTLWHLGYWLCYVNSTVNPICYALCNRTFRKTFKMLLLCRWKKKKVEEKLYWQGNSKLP

CC[C@@H](Nc1c(C#N)c(-c2ccc(-c3cccc(C)c3F)cc2)nc2cnccc12)C(=O)O [BAY-091]
inactive: [1] 7.75% | [2] -7.99% | [3] 0.08% | [4] -6.79% | [5] 10.8% | [6] 3.85% | [7] 13.3% | [8] 6.44% | [9] -1% | [10] 8.23% | [11] 3.94% | [12] 10.2% | [13] 9.18% | [14] 3.03% | [15] 5.7% | [16] 13.3% | [17] 2.36% | [18] 3.07% | [19] 18% | [20] 5.44% | [21] -4.99% | [22] 5.46% | [23] 4.51% | [24] 23.8% | [25] 3.26% | [26] -9.06% | [27] 12.7% | [28] 4.37% | [29] 12.6% | [30] -3.56% | [31] 7.48% | [32] 10.3% | [33] 16% | [34] 14.9% | [35] 2.82% | [36] 10.4% | [37] 2.25% | [38] 8.27% | [39] 3.04% | [40] 2.99% | [41] 30.9% | [42] 18.1% | [43] 11% | [44] 15.8% | [45] -4.26% | [46] -3% | [47] 25% | [48] -3% | [49] 6%
